Results: ChEMBL document CHEMBL5321228, “Discovery of novel BTK PROTACs with improved metabolic stability via linker rigidification strategy” (Eur J Med Chem, 2023)
Active and inactive are the calls of the source. The calls are words filed in the database; no cut-off is given here.

How the values were obtained:
[1] = target: T1, Protein cereblon/Tyrosine-protein kinase BTK (Homo sapiens, UniProt Q06187+Q96SW2); assay: PROTAC activity at CRBN/BTK in human JeKo-1 cells assessed as induction of BTK degradation at 100 nM incubated for 24 hrs by Western blotting analysis relative to control; format: cell-based
Target sequence in this assay (Q06187 2-659 limits assumed): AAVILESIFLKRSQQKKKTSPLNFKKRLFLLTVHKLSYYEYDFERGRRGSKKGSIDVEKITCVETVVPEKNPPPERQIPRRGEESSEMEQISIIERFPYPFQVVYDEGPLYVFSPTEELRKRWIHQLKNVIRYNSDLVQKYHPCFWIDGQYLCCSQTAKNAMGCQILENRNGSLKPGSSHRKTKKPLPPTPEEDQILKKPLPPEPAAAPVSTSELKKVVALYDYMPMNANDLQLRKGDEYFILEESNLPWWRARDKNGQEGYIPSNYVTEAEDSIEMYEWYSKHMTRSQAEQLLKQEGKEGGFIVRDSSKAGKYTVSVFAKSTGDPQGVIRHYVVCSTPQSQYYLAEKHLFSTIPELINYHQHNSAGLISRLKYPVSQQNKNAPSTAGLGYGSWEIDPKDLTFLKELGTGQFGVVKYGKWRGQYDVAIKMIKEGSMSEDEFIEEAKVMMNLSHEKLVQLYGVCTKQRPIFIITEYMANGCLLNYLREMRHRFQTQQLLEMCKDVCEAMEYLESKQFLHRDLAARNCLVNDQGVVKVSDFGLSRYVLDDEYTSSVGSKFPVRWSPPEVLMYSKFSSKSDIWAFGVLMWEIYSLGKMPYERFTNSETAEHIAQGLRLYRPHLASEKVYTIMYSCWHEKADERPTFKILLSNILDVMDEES
Target sequence in this assay (Q96SW2 whole entry partner): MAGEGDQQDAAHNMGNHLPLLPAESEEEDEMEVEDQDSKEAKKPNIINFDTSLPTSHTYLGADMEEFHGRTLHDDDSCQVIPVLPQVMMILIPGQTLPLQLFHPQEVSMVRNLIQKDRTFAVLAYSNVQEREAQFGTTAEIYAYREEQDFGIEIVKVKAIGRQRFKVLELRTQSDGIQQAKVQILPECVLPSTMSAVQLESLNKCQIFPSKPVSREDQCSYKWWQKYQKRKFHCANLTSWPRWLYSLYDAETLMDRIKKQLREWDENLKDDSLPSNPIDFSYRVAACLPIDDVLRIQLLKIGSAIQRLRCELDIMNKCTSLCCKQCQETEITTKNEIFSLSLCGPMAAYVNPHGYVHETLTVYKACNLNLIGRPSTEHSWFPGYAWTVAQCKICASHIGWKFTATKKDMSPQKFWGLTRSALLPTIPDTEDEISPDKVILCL

[2] = target: T1, Protein cereblon/Tyrosine-protein kinase BTK; assay: PROTAC activity at CRBN/BTK in human JeKo-1 cells assessed as induction of BTK degradation at 1000 nM incubated for 24 hrs by Western blotting analysis relative to control; format: cell-based
Target sequence in this assay (Q06187 2-659 limits assumed): as the sequence (Q06187 2-659 limits assumed) above
Target sequence in this assay (Q96SW2 whole entry partner): as the sequence (Q96SW2 whole entry partner) above

[3] = target: T1, Protein cereblon/Tyrosine-protein kinase BTK; assay: PROTAC activity at CRBN/BTK in human JeKo-1 cells assessed as induction of BTK degradation incubated for 24 hrs by Western blotting analysis; format: cell-based
Target sequence in this assay (Q06187 whole entry): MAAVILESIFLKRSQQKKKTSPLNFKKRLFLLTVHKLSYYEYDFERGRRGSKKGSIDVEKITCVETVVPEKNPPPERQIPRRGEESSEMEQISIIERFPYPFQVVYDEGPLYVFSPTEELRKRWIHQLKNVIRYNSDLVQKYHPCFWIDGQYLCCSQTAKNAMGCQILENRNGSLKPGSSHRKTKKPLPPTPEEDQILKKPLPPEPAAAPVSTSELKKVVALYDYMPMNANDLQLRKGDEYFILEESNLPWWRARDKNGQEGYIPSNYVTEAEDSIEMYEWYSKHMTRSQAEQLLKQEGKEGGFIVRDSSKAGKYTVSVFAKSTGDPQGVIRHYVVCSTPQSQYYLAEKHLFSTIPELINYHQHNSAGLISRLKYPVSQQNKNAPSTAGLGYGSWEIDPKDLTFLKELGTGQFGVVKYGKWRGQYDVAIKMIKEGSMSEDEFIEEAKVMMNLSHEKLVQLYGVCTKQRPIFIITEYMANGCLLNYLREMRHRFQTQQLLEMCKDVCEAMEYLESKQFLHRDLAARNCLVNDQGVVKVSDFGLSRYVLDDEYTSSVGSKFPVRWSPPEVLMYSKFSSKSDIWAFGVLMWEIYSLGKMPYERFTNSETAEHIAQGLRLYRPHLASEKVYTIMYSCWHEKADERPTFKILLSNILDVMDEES
Target sequence in this assay (Q96SW2 whole entry): as the sequence (Q96SW2 whole entry partner) above

[4] = target: T1, Protein cereblon/Tyrosine-protein kinase BTK; assay: PROTAC activity at CRBN/BTK in human JeKo-1 cells assessed as induction of BTK degradation by measuring maximal efficacy at 1.6 to 1000 nM incubated for 24 hrs by Western blotting analysis relative to control; format: cell-based; conditions: dose 1.6-1000 nM
Target sequence in this assay (Q06187 2-659 limits assumed): as the sequence (Q06187 2-659 limits assumed) above
Target sequence in this assay (Q96SW2 whole entry partner): as the sequence (Q96SW2 whole entry partner) above

[5] = Metabolic stability in mouse liver microsomes assessed as half life at […] measured upto 60 mins in presence of NADPH by HPLC-MS/MS analysis; format: ADME, Microsome
[6] = target: T1, Protein cereblon/Tyrosine-protein kinase BTK; assay: PROTAC activity at CRBN/BTK in human JeKo-1 cells assessed as induction of BTK degradation pre-treated with N-((1S,4S)-4-((5-(2-chloro-4-phenoxybenzoyl)-7H-pyrrolo[2,3-d]pyrimidin-4-yl)amino)cyclohexyl)-2-(1-(2-(1-(6-fluoro-2-(1-methyl-2,6-dioxopiperidin-3-yl)-1-oxoisoindolin-5-yl)piperidin-4-yl)ethyl)piperidin-4-yl)acetamide for 2 hrs followed by compound treatment for 12 hrs by Western blotting analysis; format: cell-based
Target sequence in this assay (Q06187 2-659 limits assumed): as the sequence (Q06187 2-659 limits assumed) above
Target sequence in this assay (Q96SW2 whole entry partner): as the sequence (Q96SW2 whole entry partner) above

[7] = target: T1, Protein cereblon/Tyrosine-protein kinase BTK; assay: PROTAC activity at CRBN/BTK in human JeKo-1 cells assessed as induction of BTK degradation pre-treated with MG-132 for 2 hrs followed by compound treatment for 12 hrs by Western blotting analysis; format: cell-based
Target sequence in this assay (Q06187 2-659 limits assumed): as the sequence (Q06187 2-659 limits assumed) above
Target sequence in this assay (Q96SW2 whole entry partner): as the sequence (Q96SW2 whole entry partner) above

[8] = target: T1, Protein cereblon/Tyrosine-protein kinase BTK; assay: PROTAC activity at CRBN/BTK in human JeKo-1 cells assessed as effect on […] levels at 1.6 to 1000 nM incubated for 24 hrs by Western blotting analysis; format: cell-based; conditions: dose 1.6-1000 nM
Target sequence in this assay (Q06187 2-659 limits assumed): as the sequence (Q06187 2-659 limits assumed) above
Target sequence in this assay (Q96SW2 whole entry partner): as the sequence (Q96SW2 whole entry partner) above

[9] = target: T1, Protein cereblon/Tyrosine-protein kinase BTK; assay: PROTAC activity at CRBN/BTK in human JeKo-1 cells assessed as effect on GSPT1 levels at 1.6 to 1000 nM incubated for 24 hrs by Western blotting analysis; format: cell-based; conditions: dose 1.6-1000 nM
[10] = tested on: OCI-Ly10; assay: Antiproliferative activity against human OCILY10 cells assessed as inhibition of cell growth measured after 3 days by CCK-8 assay; format: functional, cell-based; conditions: OCI-Ly10, 72 h
[11] = tested on: TMD8; assay: Antiproliferative activity against human TMD8 cells assessed as inhibition of cell growth measured after 3 days by CCK-8 assay; format: functional, cell-based; conditions: TMD8, 72 h
[12] = tested on: JeKo-1; assay: Antiproliferative activity against human JeKo-1 cells assessed as inhibition of cell growth measured after 3 days by CCK-8 assay; format: functional, cell-based; conditions: JeKo-1, 72 h
[13] = tested on: BaF3; assay: Antiproliferative activity against mouse BaF3 cells expressing BTK C481S mutant assessed as inhibition of cell growth measured after 3 days by CCK-8 assay; format: functional, cell-based; conditions: BaF3, 72 h
[14] = Drug concentration in BALB/c mouse plasma at 2 mg/kg, iv measured after 4 hrs by LC-MS/MS analysis; format: ADME, organism-based
[15] = target: T1, Protein cereblon/Tyrosine-protein kinase BTK; assay: PROTAC activity at CRBN/BTK in human JeKo-1 cells assessed as induction of BTK degradation by measuring maximal efficacy at 1.6 to 5000 nM incubated for 24 hrs by Western blotting analysis relative to control; format: cell-based; conditions: dose 1.6-5000 nM

Activity [1] [%]	Activity [2] [%]	DC50 [3] [µM]	Structure (SMILES)	also measured
15	18.5	–	O=C1CCC(N2C(=O)c3ccc(N4CCC(N5CCC(N[C@H]6CC[C@@H](Nc7ncnc8[nH]cc(C(=O)c9ccc(Oc%10ccccc%10)cc9Cl)c78)CC6)CC5)CC4)cc3C2=O)C(=O)N1 (some centres undefined)	–
31.5	74	–	O=C1CCC(N2C(=O)c3ccc(N4CCC(CN5CCCC(N[C@H]6CC[C@@H](Nc7ncnc8[nH]cc(C(=O)c9ccc(Oc%10ccccc%10)cc9Cl)c78)CC6)C5)CC4)cc3C2=O)C(=O)N1 (some centres undefined)	–
76	69.5	0.1	O=C1CCC(N2C(=O)c3ccc(N4CCC(CCN5CCC(CN[C@H]6CC[C@@H](Nc7ncnc8[nH]cc(C(=O)c9ccc(Oc%10ccccc%10)cc9Cl)c78)CC6)CC5)CC4)cc3C2=O)C(=O)N1 (some centres undefined)	–
45.5	57	–	O=C1CCC(N2C(=O)c3ccc(N4CCC(CC(=O)N5CCC(CN[C@H]6CC[C@@H](Nc7ncnc8[nH]cc(C(=O)c9ccc(Oc%10ccccc%10)cc9Cl)c78)CC6)CC5)CC4)cc3C2=O)C(=O)N1 (some centres undefined)	–
91	89	0.007	O=C1CCC(N2Cc3cc(N4CCC(CCN5CCC(CC(=O)N[C@H]6CC[C@@H](Nc7ncnc8[nH]cc(C(=O)c9ccc(Oc%10ccccc%10)cc9Cl)c78)CC6)CC5)CC4)c(F)cc3C2=O)C(=O)N1 (some centres undefined)	Emax [4]: 96.5%; half-life [5]: > 145 min; Activity [6]: inactive; Activity [7]: inactive; Activity [8]: inactive; Activity [9]: inactive; IC50 [10]: 0.0023 µM; IC50 [11]: 0.0045 µM; IC50 [12]: 0.0381 µM; IC50 [13]: 0.086 µM; concentration at 4 h [14]: > 0.01 µM
29.5	38.5	–	O=C1CCC(N2C(=O)c3ccc(N4CCC(CN5CC(CN[C@H]6CC[C@@H](Nc7ncnc8[nH]cc(C(=O)c9ccc(Oc%10ccccc%10)cc9Cl)c78)CC6)C5)CC4)cc3C2=O)C(=O)N1 (some centres undefined)	–
61	50	–	O=C1CCC(N2C(=O)c3ccc(N4CCC(CN5CCC(C(=O)N[C@H]6CC[C@@H](Nc7ncnc8[nH]cc(C(=O)c9ccc(Oc%10ccccc%10)cc9Cl)c78)CC6)CC5)CC4)cc3C2=O)C(=O)N1 (some centres undefined)	–
79.5	73.5	0.024	O=C1CCC(N2C(=O)c3ccc(N4CCC(CN5CCC(CC(=O)N[C@H]6CC[C@@H](Nc7ncnc8[nH]cc(C(=O)c9ccc(Oc%10ccccc%10)cc9Cl)c78)CC6)CC5)CC4)cc3C2=O)C(=O)N1 (some centres undefined)	–
85	82.5	0.0088	O=C1CCC(N2C(=O)c3ccc(N4CCC(CCN5CCC(CC(=O)N[C@H]6CC[C@@H](Nc7ncnc8[nH]cc(C(=O)c9ccc(Oc%10ccccc%10)cc9Cl)c78)CC6)CC5)CC4)cc3C2=O)C(=O)N1 (some centres undefined)	half-life [5]: 86 min; Emax [15]: 94.1%; IC50 [10]: 0.0154 µM; IC50 [11]: 0.0821 µM; IC50 [12]: 0.0595 µM
86.5	88.6	0.02	O=C1CCC(N2C(=O)c3cccc(NCCOCCOCCOCCOCCOCCNC(=O)N[C@H]4CC[C@@H](Nc5ncnc6[nH]cc(C(=O)c7ccc(Oc8ccccc8)cc7Cl)c56)CC4)c3C2=O)C(=O)N1 (some centres undefined)	Emax [4]: 93.8%; half-life [5]: 1.3 min; IC50 [13]: 1.76 µM
32	24	–	O=C1CCC(N2C(=O)c3ccc(N4CCC(CN5CC(N[C@H]6CC[C@@H](Nc7ncnc8[nH]cc(C(=O)c9ccc(Oc%10ccccc%10)cc9Cl)c78)CC6)C5)CC4)cc3C2=O)C(=O)N1 (some centres undefined)	–
3	5	–	O=C1CCC(N2C(=O)c3ccc(N4CCC(N[C@H]5CC[C@@H](Nc6ncnc7[nH]cc(C(=O)c8ccc(Oc9ccccc9)cc8Cl)c67)CC5)CC4)cc3C2=O)C(=O)N1 (some centres undefined)	–
80.4	86	0.0101	O=C1CCC(N2Cc3cc(N4CCC(CCN5CCC(CC(=O)N[C@H]6CC[C@@H](Nc7ncnc8[nH]cc(C(=O)c9ccc(Oc%10ccccc%10)cc9Cl)c78)CC6)CC5)CC4)ccc3C2=O)C(=O)N1 (some centres undefined)	Emax [4]: 90.1%; half-life [5]: 52 min; IC50 [10]: 0.0157 µM; IC50 [11]: 0.0155 µM
39	42.5	–	O=C1CCC(N2C(=O)c3ccc(N4CCC(N5CCC(CN[C@H]6CC[C@@H](Nc7ncnc8[nH]cc(C(=O)c9ccc(Oc%10ccccc%10)cc9Cl)c78)CC6)CC5)CC4)cc3C2=O)C(=O)N1 (some centres undefined)	–
48	63.5	–	O=C1CCC(N2C(=O)c3ccc(N4CCC(CN5CCC(CN[C@H]6CC[C@@H](Nc7ncnc8[nH]cc(C(=O)c9ccc(Oc%10ccccc%10)cc9Cl)c78)CC6)CC5)CC4)cc3C2=O)C(=O)N1 (some centres undefined)	–
–	–	–	C=CC(=O)N1CCC[C@@H](n2nc(-c3ccc(Oc4ccccc4)cc3)c3c(N)ncnc32)C1 [IBRUTINIB]	IC50 [10]: 0.0045 µM; IC50 [11]: 0.0047 µM; IC50 [12]: 0.0798 µM; IC50 [13]: 1.55 µM
51.5	62	–	O=C1CCC(N2C(=O)c3ccc(N4CCC(CN5CCC(N[C@H]6CC[C@@H](Nc7ncnc8[nH]cc(C(=O)c9ccc(Oc%10ccccc%10)cc9Cl)c78)CC6)CC5)CC4)cc3C2=O)C(=O)N1 (some centres undefined)	–
57	77	–	O=C1CCC(N2C(=O)c3ccc(N4CCC(CN5CCC(CCN[C@H]6CC[C@@H](Nc7ncnc8[nH]cc(C(=O)c9ccc(Oc%10ccccc%10)cc9Cl)c78)CC6)CC5)CC4)cc3C2=O)C(=O)N1 (some centres undefined)	–
28.5	26	–	O=C1CCC(N2C(=O)c3ccc(N4CCC(F)(CN5CCC(CC(=O)N[C@H]6CC[C@@H](Nc7ncnc8[nH]cc(C(=O)c9ccc(Oc%10ccccc%10)cc9Cl)c78)CC6)CC5)CC4)cc3C2=O)C(=O)N1 (some centres undefined)	–
87	88.5	0.0093	O=C1CCC(N2C(=O)c3cc(F)c(N4CCC(CCN5CCC(CC(=O)N[C@H]6CC[C@@H](Nc7ncnc8[nH]cc(C(=O)c9ccc(Oc%10ccccc%10)cc9Cl)c78)CC6)CC5)CC4)cc3C2=O)C(=O)N1 (some centres undefined)	half-life [5]: 55.4 min; Emax [15]: 93.6%; IC50 [10]: 0.0282 µM; IC50 [11]: 0.047 µM; IC50 [12]: 0.117 µM
–	–	–	O=C(c1ccc(Oc2ccccc2)cc1Cl)c1c[nH]c2ncnc(N[C@@H]3CC[C@@H](CO)OC3)c12 [NEMTABRUTINIB]	IC50 [12]: 0.0661 µM; IC50 [13]: 0.548 µM
83	87	0.0074	O=C1CCC(N2Cc3ccc(N4CCC(CCN5CCC(CC(=O)N[C@H]6CC[C@@H](Nc7ncnc8[nH]cc(C(=O)c9ccc(Oc%10ccccc%10)cc9Cl)c78)CC6)CC5)CC4)cc3C2=O)C(=O)N1 (some centres undefined)	Emax [4]: 90.6%; half-life [5]: > 145 min; IC50 [10]: 0.0059 µM; IC50 [11]: 0.0093 µM; IC50 [12]: 0.0344 µM
30	21	–	O=C1CCC(N2C(=O)c3ccc(N4CC(N5CCC(CN[C@H]6CC[C@@H](Nc7ncnc8[nH]cc(C(=O)c9ccc(Oc%10ccccc%10)cc9Cl)c78)CC6)CC5)C4)cc3C2=O)C(=O)N1 (some centres undefined)	–
